The record followed here is ChEMBL document CHEMBL4825693, “Discovery of novel N-sulfonamide-tetrahydroisoquinolines as potent retinoic acid receptor-related orphan receptor γt agonists” (Eur J Med Chem, 2021).

The target of assay [1] is T1, Nuclear receptor ROR-gamma (Homo sapiens, UniProt P51449).
T1 sequence (P51449 whole entry): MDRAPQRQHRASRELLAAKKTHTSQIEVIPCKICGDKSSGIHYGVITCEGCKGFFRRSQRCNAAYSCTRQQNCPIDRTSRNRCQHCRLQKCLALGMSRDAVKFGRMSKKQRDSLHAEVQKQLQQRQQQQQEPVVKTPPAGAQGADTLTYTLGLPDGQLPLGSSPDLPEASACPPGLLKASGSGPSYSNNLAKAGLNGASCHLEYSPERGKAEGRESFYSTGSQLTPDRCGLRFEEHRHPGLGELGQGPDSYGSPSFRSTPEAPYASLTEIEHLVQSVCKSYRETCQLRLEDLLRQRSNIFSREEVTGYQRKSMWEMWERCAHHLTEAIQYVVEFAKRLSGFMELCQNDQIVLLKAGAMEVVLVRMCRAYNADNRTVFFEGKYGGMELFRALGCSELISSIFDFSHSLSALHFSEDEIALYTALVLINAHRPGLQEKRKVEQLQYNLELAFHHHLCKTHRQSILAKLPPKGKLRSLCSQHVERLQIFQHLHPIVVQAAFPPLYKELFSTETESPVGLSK
Put plainly: Agonist activity at europium-labeled human RORgammat LBD assessed as induction of XL665-labeled co-activator SRC1 recruitment incubated for 1 hr by dual FRET assay.

The target of assay [2] is T2, Nuclear receptor ROR-gamma (Mus musculus) (UniProt P51450).
T2 sequence (whole entry): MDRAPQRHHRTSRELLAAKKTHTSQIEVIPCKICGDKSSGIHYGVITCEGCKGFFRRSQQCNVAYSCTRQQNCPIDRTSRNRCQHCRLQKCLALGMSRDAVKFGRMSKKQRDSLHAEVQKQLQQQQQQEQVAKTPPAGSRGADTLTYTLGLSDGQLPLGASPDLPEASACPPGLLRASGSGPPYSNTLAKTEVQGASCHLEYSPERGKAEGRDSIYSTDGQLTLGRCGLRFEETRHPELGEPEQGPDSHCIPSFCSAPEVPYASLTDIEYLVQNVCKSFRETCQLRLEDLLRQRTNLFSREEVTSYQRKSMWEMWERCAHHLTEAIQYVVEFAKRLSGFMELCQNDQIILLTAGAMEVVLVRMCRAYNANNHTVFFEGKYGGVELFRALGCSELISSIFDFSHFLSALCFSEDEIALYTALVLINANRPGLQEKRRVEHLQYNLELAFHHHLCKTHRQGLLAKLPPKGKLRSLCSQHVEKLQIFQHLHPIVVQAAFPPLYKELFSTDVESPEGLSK
Briefly: Agonist activity at RORgammat in C57 mouse CD4+ T cells assessed as induction of Th17 cells differentiation by measuring increase in IL17 production measured after 4 days by flow cytometry analysis relative to control. Type of assay: cell-based. To be noted: CD4+ve Th, filed as agonist, time 4.0 day.

Assay [3] deals with T1, Nuclear receptor ROR-gamma. Put plainly: Agonist activity at human RORgammat LBD expressed in HEK293T cells incubated for 16 to 20 hrs by Gal4-luciferase reporter gene assay. It counts as cell-based. (A reporter such as luciferase makes a cellular process visible.)
The target of assay [4] is T1, Nuclear receptor ROR-gamma. Put plainly: Inverse agonist activity at europium-labeled human RORgammat LBD assessed as inhibition of XL665-labeled co-activator SRC1 recruitment incubated for 1 hr by dual FRET assay.
Assay [5] deals with T3, Nuclear receptor ROR-gamma (Homo sapiens) (UniProt P51449).
T3 sequence (whole entry): T1 sequence (P51449 whole entry)
Briefly: Inverse agonist activity at europium-labeled human RORgammat LBD assessed as inhibition of XL665-labeled co-activator SRC1 recruitment incubated for 1 hr by dual FRET assay relative to control. To be noted: concentration not given here.

What is called EC50 is the midpoint of the concentration-response curve. What is called IC50 is the concentration that gives 50% inhibition. The term inhibition denotes the change of the read-out against control, counted positive when it falls.

For the compound `CC(=O)N1CCN(c2ccc3c(c2)CCN(S(=O)(=O)N(C)c2nccc(C(F)(F)F)n2)C3)CC1`, the EC50 in assay [1] is 6240 nM.

As for `CC(=O)N1CCN(c2ccc3c(c2)CCN(S(=O)(=O)N(C)Cc2ccccc2Cl)C3)CC1`, the max activation in assay [2] turned out to be 93%. The EC50 in assay [1] was 982 nM; in assay [3], 740 nM.

`CC(=O)N1CCN(c2ccc3c(c2)CCN(S(=O)(=O)N(C)CCCc2ccccc2)C3)CC1`: the EC50 in assay [1] turned out to be 570 nM.

On to `CC(=O)N1CCN(c2ccc3c(c2)CCN(S(=O)(=O)N(C)Cc2c(F)cccc2Cl)C3)[C@H](C)C1`, for which, in assay [1], the EC50 amounted to 23 nM.

For `CC(=O)N1CCN(c2ccc3c(c2)CCN(S(=O)(=O)N(C)Cc2cccc(C)c2)C3)CC1`, in assay [1], the EC50 was found to be 215 nM.

On to `CC(=O)N1CCN(c2ccc3c(c2)CCN(S(=O)(=O)N(C)Cc2ccccc2C)C3)CC1`, for which the EC50 in assay [1] is 221 nM.

Consider `CC(=O)N1CCN(c2ccc3c(c2)CCN(S(=O)(=O)N(C)Cc2ccccc2)C3)CC1`, for which, in assay [1], the EC50 was 560 nM.

Regarding `CC(=O)N1CCN(c2ccc3c(c2)CCN(S(=O)(=O)N(C)Cc2cc(F)ccc2F)C3)CC1`, the EC50 in assay [1] is 148 nM.

As to `CC(=O)N1CCN(c2ccc3c(c2)CCN(S(=O)(=O)N(C)Cc2ccccc2F)C3)CC1`, in assay [1], the EC50 turned out to be 358 nM.

Take `CC(=O)N1CCN(c2ccc3c(c2)CCCN3S(=O)(=O)N(C)Cc2ccccc2Cl)CC1`: in assay [4], the half-inhibitory concentration (IC50) was found to be 167 nM.

As to `CC(=O)N1CCN(c2ccc3c(c2)CCN(S(=O)(=O)N(C)Cc2ccc(C(F)(F)F)cc2)C3)CC1`, the EC50 in assay [4] was 1980 nM. Also, the inhibition in assay [5] amounted to 25.8%.

For the compound `CC(=O)N1CCN(c2ccc3c(c2)CCN(S(=O)(=O)N(C)CCc2ccccc2)C3)CC1`, the EC50 in assay [1] turned out to be 2230 nM.

With `CC(=O)N1CCN(c2ccc3c(c2)CCN(S(=O)(=O)N(C)Cc2c(F)cccc2Cl)C3)CC1`, in assay [2], the max activation came to 167%. Besides, the EC50 in assay [1] stood at 21 nM; in assay [3] it was 190 nM.

For `CC(=O)N1CCN(c2ccc3c(c2)CCN(S(=O)(=O)N(C)Cc2cccc(F)c2)C3)CC1`, the EC50 in assay [1] came out at 546 nM.

With `CC(=O)N1CCN(c2ccc3c(c2)CCN(S(=O)(=O)N(C)Cc2ccc(F)cc2)C3)CC1`, in assay [1], the EC50 was determined as 1020 nM.

In the case of `CC(=O)N1CCN(c2ccc3c(c2)CCN(S(=O)(=O)N(C)Cc2cccc(Cl)c2)C3)CC1`, in assay [1], the EC50 was found to be 138 nM.

As for `CC(=O)N1CCN(c2ccc3c(c2)CCN(S(=O)(=O)N(C)Cc2ccccn2)C3)CC1`, the EC50 in assay [1] was determined as 12300 nM.
